Data: US20040034028A1, “4-(biphenylcarbonylamino)piperidine derivatives as mtp inhibitors” (priority 2000, published 2004)

Columns and labels:
[1] = target: T1, microsomal triglyceride transfer protein (MTP) (Mesocricetus auratus, UniProt P55158); experiment: Inhibition of the activity of MTP (transfer of labelled triglyceride, SPA); type: biochemical, golden hamster; details: hamster liver MTP, [3H]-trioleine donor liposomes, biot-LDL acceptor, 18-24 hours at 37° C.; read-out: IC50, concentration which allows a 50% inhibition of MTP
T1 construct: The supernatant containing the soluble MTP is dialysed; from tissue; host or cells: golden hamster liver microsomes
T1 sequence (P55158 19-895): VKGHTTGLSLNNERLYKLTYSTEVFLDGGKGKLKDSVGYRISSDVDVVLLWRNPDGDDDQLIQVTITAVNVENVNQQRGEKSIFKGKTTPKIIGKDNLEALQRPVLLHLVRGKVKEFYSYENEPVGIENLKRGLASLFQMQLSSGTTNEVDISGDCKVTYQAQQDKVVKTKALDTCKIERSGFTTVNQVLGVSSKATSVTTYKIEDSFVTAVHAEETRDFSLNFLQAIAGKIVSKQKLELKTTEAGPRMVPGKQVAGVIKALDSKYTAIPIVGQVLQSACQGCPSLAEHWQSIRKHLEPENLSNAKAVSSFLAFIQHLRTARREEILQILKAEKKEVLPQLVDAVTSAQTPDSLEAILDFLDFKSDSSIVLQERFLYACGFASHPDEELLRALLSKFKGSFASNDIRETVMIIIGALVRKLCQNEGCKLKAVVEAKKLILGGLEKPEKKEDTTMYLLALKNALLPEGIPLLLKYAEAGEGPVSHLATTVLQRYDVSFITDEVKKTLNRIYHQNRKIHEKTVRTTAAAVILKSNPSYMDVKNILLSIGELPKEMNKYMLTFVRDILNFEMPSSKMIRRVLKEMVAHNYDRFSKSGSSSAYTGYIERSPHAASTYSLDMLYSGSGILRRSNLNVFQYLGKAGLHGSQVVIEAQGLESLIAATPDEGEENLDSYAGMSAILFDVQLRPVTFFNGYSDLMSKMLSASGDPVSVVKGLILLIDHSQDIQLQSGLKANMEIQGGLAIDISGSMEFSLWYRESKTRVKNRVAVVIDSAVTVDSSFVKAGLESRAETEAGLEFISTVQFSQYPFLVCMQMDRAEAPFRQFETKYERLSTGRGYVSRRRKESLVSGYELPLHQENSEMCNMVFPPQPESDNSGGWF
Protocol: Analysis of th inhibition of the activity of MTP The inhibition of the activity of microsomal triglyceride transfer protein MTP) was tested using the following protocal.
The inhibition of the activity of MTP with a compound may be quantified by observing the inhibition of the transfer of a labeled triglyceride, from a donor particle to an acceptor particle, in the presence of MTP. The procedure for preparing MTP is based on the method by Wetterau and Zilversmit (Biochem. Biophys. Acta (1986) 875 610). A few grams of golden hamster liver are taken and then rinsed several times in a 250 mM sucrose solution at 0° C. All the following steps proceed at +4° C. A 50% homogenate in 250 mM sucrose is prepared using a Teflon mill and then centrifuged for 10 minutes at 10 000×g at +4° C. The supernatant is then centrifuged at 105 000×g for 75 minutes at +4° C. The supematant is removed and the microsomal pellet is taken up in 3 ml (per gram of starting liver) of 150 mM pH 8.0 Tris/HCl. 1 ml aliquot fractions are stored at −80° C. until use.
After thawing a fraction of microsomes (1 ml), 12 ml of refrigerated 50 mM Tris/HCl, 50 mM KCl, 5 mM MgCl2, pH 7.4 buffers and 1.2 ml of deoxycholate (0.54% in water) are added. After incubating for 30 minutes at +4° C. with gentle agitation, the suspension is centrifuged at 105 000×g for 75 minutes. The supernatant containing the soluble MTP is dialysed against 150 mM Tris/HCl, 40 mM NaCl, 1 mM EDTA, 0.02% sodium azide, pH 7.4 buffer (5 times one litre over 2-3 days). […]
The acceptor particles are biotinylated low-density lipoproteins (biot-LDL). […] After incubating for 18-24 hours at 37° C. the reaction is quenched by adding 100 μl of Amersham SPA (Scintillation Proximity Assay) beads coupled to steptavidin and the radioactivity is counted using a Top Count (Packard) at least one hour later. The inhibition of the transfer of triglycerides by a compound is reflected by a reduction in the radioactivity transferred. The percentage of inhibition for a given compound is determined relative to controls which contain no compounds in the reaction mixture. […]

[2] = test system: secretion of apo B in Hep G2 cells; experiment: Inhibition of the secretion of apo B in the Hep G2 human cell line (ELISA); type: cell-based; details: HepG2, 24 hours incubation, sandwich ELISA for human apo B, read-out: IC50, concentration which produces a 50% inhibition of the secretion of apo B in the Hep G2 cells
Protocol: Analysis of the secretion of apo B in the Hep G2 human cell line:
The activity of a compound according to the invention may be evaluated by measuring the inhibition of the secretion of apo B in Hep G2 cells.
The Hep G2 cells (ECACC—number 85011430) are used as a model in the study of the in vitro hepatic secretion of lipoproteins (Dixon J. and Ginsberg H.—J. Lipid. Res.—1993, 34:167-179).
The Hep G2 cells are cultured in a Dulbecco's modified Eagle medium containing 10% foetal calf serum (DMEM and FCS—Gibco) in 96-well plates in an atmosphere of 5% carbon dioxide for 24 hours (about 70% confluence).
The test compounds are dissolved at 2 or 10 mM in dimethyl sulphoxide (DMSO). Serial dilutions (1:3.16) are performed in DMSO and added (1:200—Robot Multim Beckman) to the growth medium (200 microlitres) and finally incubated for 24 hours in the various wells containing the Hep G2 cells.
The 24-hour culture supernatant diluted to 1:5 (phosphate-buffered saline: PBS containing 1% bovine serum albumin) is tested according to a sandwich ELISA method which is specific for human apo B.
The results are expressed in terms of IC50, namely the concentration which produces a 50% inhibition of the secretion of apo B in the Hep G2 cells.

Row | IC50 [1] [µM] | IC50 [2] [µM] | melting point [°C] | Compound
1 | 0.026 | 0.002 | 210 | O=C(NC1CCN(Cc2ccc3ccccc3n2)CC1)c1ccccc1-c1ccc(C(F)(F)F)cc1 [A-8, 1-(2-quinolylmethyl)-4-[(4′-trifluoromethyl-2-biphenyl)carbonylamino]-piperidine]
2 | 0.084 | 0.074 |  | Cc1ncccc1CN1CCC(NC(=O)c2ccccc2-c2ccc(C(F)(F)F)cc2)CC1 [A-7, 1-[(2-methyl-3-pyridyl)methyl]-4-[(4′-trifluoromethyl-2-biphenyl)carbonylamino]-piperidine]
3 | 0.065 | 0.003 | 170 | Cc1cccc(CN2CCC(NC(=O)c3ccccc3-c3ccc(C(F)(F)F)cc3)CC2)n1 [A-5, 1-[(6-methyl-2-pyridyl)methyl]-4-[(4′-trifluoromethyl-2-biphenyl)carbonylamino]-piperidine]
